The text below walks through data of patent US6864356B2, “Sixteen amino acid of the antineoplastic protein (ANUP) as a pharmacologically active anti-tumor agent” (priority 1997, dated 2005).

For assay [1], the system named is human breast tumor cell line (MDA 231). As to the kind of experiment: in vitro antitumor (tumor killing) assay, neutral red dye, 96 well plates. Particulars: MDA 231 cells. Format: cell-based. The method, then: The antitumor activity of the peptide (P16) was assayed against the human breast tumor cell line (MDA 231) and its activity was compared to the in vitro antitumor effect of the “pure” protein (ANUP).
The assay for the pharmacological antitumor activities were performed as follows utilizing 96 well plates—
20,300-30,000 human breast tumor cells in L-15 medium (200 μl) containing 2.5% fetal calf serum and 100 μg gentamycin per ml (complete medium) were incubated at 37° in air for 120 hours; after this incubation period 50 μl of serially diluted P16 and ANUP were added to each well. […] The solutions were diluted in complete medium containing 0.05% SDS to a concentration of 350 μg per ml.
Dilution plates were prepared as follows:
100 μl of complete medium were added to each well and 50 μl of diluted P16 and ANUP were added to each well in row A thus 1.3 dilution was accomplished; 50 μl were serially diluted in the 100 μl of medium in rows B through H. Thus the range of concentrations were from 6 μg to 2 mg when 50 μl each dilution series were added to the 200 μl of the complete medium containing the MDA cells. The plates were incubated for an additional 96-120 hours. The medium was poured off and after a 90-minute incubation with 50 μl neutral red dye (0.5 ml neutral red (0.25% ethanol (0.6 ml) diluted 5.5 saline-0.16 mm HCl) the cells were washed twice with PBS (phosphate buffer saline) at room temperature. The concentration of living cells (since only living cells absorb the dye) was determined after adding 100 μl lysing buffer (50% ethanol in 0.05 m NaH2 PO4) the concentration of neutral red released in each well was determined using a Dynetech plate reader set at […]. A unit of activity was defined as the concentration of ANUP and P16 for 50% killing.

The subject of a further assay is tumor cells. Particulars: electron microscopy (Struve et al. 1990); cited from earlier work.

Non-standard residues stand in square brackets, D forms with d. No end group written: not given here. pGlu = O=C1CC[C@@H](C(=O)O)N1

For the substance “synthetic hexadeca peptide (16 L-amino acids), partial N-terminal sequence of ANUP: Pyroglu-Leu-Lys-Cys-Tyr-Thr-Cys-Lys-Glu-Pro-Met-Thr-Ser-Ala-Ala-Cys (SEQ ID NO: 1) ([pGlu]LKCYTCKEPMTSAAC; cysteine pairing not given here) [P16]”, the “Fraction of the Activity relative to ANUP” value is given as 0.04 in assay [1] (+ 0.005% SDS), 0.50 in assay [1] (+ 0.02% SDS), 0.50 in assay [1] (+ 0.05% SDS) and “± no Activity” in assay [1] (no SDS). Besides, the “antitumor activity in the absence of SDS” value in assay [1] (absence of SDS) is recorded as “neither the peptide nor the protein showed any antitumor activity”. Besides, the “activity compared to the protein (ANUP), molar basis” value in assay [1] (in vitro) is on record as “about 50%”. The IC50 in assay [1] (medium containing SDS, 96-120 hours incubation, read-out: 50% end point (concentration for 50% killing)) turned out to be 22 nM. For the same substance, the “weight of peptide required relative to weight of protein (ANUP) for equal activity” value in assay [1] (weight basis) is given as “one tenth”. For the same substance, the “effect on tumor cells by electron microscopy” value in the assay on tumor cells is “complete degradation of the cells”.
